Reference: ChEMBL document CHEMBL5223102, “CDK9 inhibitors in cancer research” (RSC Med Chem, 2022)
pIC50: −log10 of the molar value.

How the values were obtained:
[1] = biological target: T1, Cyclin-dependent kinase 4 (Homo sapiens, UniProt P11802); assay: Inhibition of CDK4 (unknown origin)
[2] = biological target: T2, Cyclin-dependent kinase 4/cyclin D1 (Homo sapiens, UniProt P11802); assay: Inhibition of human CDK4/Cyclin D1 assessed as substrate phosphorylation at ser780 using GST tagged retinoblastoma as substrate in presence of gamma32P-ATP by scintillation counter analysis; format: protein-complex assay
T2 sequence (P11802 whole entry): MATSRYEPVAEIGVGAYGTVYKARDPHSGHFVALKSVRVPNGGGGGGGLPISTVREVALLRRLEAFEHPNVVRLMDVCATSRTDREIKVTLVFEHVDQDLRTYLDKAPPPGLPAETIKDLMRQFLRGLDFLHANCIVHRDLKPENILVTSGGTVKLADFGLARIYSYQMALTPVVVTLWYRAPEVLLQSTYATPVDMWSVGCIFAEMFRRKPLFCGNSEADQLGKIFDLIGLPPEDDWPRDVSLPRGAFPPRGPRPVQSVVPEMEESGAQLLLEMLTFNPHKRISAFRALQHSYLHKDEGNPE
T2 sequence (P24385 whole entry, further chain): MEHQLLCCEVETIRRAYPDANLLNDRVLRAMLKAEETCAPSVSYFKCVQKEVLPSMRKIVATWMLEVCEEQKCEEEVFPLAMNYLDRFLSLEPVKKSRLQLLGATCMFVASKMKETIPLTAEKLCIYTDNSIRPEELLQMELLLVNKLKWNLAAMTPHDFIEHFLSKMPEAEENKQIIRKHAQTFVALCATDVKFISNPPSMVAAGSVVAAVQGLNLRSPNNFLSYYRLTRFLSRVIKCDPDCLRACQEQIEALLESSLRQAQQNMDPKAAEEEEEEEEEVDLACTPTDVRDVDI

[3] = biological target: T3, Cyclin-dependent kinase 2/cyclin A (Homo sapiens, UniProt P24941); assay: Inhibition of human CDK2/Cyclin A in presence of gamma32P-ATP by scintillation counter analysis; format: protein-complex assay
[4] = biological target: T4, Cyclin-dependent kinase 1/cyclin B (Homo sapiens, UniProt P06493); assay: Inhibition of human CDK1/Cyclin B in presence of gamma32P-ATP by scintillation counter analysis; format: protein-complex assay
[5] = biological target: CDK6/cyclin D3 (Homo sapiens, UniProt Q00534); assay: Inhibition of human CDK6/Cyclin D3 in presence of gamma32P-ATP by scintillation counter analysis; format: protein-complex assay
[6] = biological target: Cyclin-dependent kinase 5/CDK5 activator 1 (Homo sapiens, UniProt Q00535); assay: Inhibition of CDK5/p35 (unknown origin); format: protein-complex assay
Chain of Cyclin-dependent kinase 5/CDK5 activator 1 (Q00535 whole entry): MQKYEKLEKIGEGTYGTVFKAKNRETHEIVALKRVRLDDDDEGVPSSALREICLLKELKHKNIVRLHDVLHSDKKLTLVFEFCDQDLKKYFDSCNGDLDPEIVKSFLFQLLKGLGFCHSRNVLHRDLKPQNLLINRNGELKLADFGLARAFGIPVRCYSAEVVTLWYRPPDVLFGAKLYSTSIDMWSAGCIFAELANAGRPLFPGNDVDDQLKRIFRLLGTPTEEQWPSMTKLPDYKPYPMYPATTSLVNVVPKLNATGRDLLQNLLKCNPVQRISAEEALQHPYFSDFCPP
Chain of Cyclin-dependent kinase 5/CDK5 activator 1 (Q15078 whole entry, further chain): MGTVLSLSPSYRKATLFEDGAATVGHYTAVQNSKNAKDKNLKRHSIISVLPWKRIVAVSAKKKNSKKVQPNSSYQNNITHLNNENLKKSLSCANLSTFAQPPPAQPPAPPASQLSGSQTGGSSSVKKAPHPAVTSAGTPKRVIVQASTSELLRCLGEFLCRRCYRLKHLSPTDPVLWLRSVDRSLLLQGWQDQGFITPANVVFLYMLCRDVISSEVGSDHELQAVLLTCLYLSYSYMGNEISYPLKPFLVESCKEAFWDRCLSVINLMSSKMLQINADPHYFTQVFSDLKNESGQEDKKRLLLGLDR

[7] = biological target: CDK4/Cyclin D3 (Homo sapiens, UniProt P11802); assay: Inhibition of human CDK4/Cyclin D3 in presence of ATP; format: protein-complex assay
[8] = biological target: CDK9/cyclin T1 (Homo sapiens, UniProt P50750); assay: Inhibition of human CDK9/cyclin T1 in presence of ATP; format: protein-complex assay
[9] = biological target: T5, Cyclin-dependent kinase 5 (Homo sapiens, UniProt Q00535); assay: Inhibition of CDK5 (unknown origin)
T5 sequence (Q00535 whole entry): as the sequence (Q00535 whole entry) above

[10] = biological target: T6, Cyclin-dependent kinase 6 (Homo sapiens, UniProt Q00534); assay: Inhibition of CDK6 (unknown origin)
T6 sequence (Q00534 whole entry): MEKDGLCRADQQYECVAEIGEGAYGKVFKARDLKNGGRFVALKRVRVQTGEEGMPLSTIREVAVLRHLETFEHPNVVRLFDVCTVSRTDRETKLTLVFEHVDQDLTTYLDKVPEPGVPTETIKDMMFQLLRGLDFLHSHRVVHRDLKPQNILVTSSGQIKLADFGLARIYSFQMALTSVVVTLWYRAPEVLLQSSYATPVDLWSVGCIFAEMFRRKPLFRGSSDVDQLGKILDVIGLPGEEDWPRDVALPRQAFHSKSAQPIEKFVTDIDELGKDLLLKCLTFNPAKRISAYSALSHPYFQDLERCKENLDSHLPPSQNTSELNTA

[11] = biological target: T7, Cyclin-dependent kinase 8 (Homo sapiens, UniProt P49336); assay: Inhibition of CDK8 (unknown origin)
T7 sequence (P49336 whole entry): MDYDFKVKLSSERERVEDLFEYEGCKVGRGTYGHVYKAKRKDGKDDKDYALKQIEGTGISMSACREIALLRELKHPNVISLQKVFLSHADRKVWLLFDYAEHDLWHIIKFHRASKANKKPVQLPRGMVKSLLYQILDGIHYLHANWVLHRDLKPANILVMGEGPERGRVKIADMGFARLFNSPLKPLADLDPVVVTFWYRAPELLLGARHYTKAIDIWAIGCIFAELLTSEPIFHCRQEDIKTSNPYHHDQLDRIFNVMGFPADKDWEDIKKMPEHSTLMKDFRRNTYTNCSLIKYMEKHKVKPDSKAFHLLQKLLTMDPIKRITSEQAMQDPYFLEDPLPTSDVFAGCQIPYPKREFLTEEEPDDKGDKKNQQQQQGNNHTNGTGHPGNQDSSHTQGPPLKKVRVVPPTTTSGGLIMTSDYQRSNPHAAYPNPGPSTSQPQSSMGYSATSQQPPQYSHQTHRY

[12] = biological target: T8, Cyclin-dependent kinase 2 (Homo sapiens, UniProt P24941)
[13] = biological target: T9, Cyclin-dependent kinase 17 (Homo sapiens, UniProt Q00537); assay: Inhibition of CDK17 (unknown origin) by Kinomescan method
T9 sequence (Q00537 whole entry): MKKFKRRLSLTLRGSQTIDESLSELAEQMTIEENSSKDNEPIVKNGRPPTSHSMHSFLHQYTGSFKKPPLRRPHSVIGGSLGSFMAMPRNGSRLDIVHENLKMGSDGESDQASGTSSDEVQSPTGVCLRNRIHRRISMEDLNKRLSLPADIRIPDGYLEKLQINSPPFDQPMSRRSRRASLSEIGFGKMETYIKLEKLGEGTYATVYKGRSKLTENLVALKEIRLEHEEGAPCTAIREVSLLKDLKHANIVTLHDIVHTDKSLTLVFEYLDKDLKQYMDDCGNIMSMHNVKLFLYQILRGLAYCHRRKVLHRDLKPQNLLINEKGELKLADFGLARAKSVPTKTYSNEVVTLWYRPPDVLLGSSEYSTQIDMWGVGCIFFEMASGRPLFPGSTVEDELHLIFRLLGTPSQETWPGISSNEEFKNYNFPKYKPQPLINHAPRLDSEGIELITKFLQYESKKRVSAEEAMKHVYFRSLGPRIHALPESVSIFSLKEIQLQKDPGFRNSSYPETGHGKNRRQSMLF

[14] = biological target: T10, Cyclin-dependent kinase 14 (Homo sapiens, UniProt O94921); assay: Inhibition of CDK14 (unknown origin) by Kinomescan method
[15] = biological target: T11, Cyclin-dependent kinase 16 (Homo sapiens, UniProt Q00536); assay: Inhibition of CDK16 (unknown origin) by Kinomescan method
T11 sequence (Q00536 whole entry): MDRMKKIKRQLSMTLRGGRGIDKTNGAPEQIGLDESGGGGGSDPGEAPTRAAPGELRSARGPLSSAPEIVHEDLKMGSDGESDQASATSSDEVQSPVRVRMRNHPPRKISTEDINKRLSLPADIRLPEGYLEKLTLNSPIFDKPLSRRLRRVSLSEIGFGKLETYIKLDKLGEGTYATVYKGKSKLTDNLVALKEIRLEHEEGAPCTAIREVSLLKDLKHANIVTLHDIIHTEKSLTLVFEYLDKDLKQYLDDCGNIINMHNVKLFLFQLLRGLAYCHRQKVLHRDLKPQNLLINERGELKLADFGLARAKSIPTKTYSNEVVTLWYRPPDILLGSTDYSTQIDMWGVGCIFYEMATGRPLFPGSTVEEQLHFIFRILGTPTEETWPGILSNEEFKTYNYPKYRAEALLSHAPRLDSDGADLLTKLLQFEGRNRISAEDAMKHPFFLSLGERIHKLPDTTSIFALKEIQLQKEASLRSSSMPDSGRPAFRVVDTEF

[16] = biological target: T7, Cyclin-dependent kinase 8; assay: Inhibition of CDK8 (unknown origin) by Kinomescan method
[17] = biological target: T12, Cyclin-dependent kinase 9 (Homo sapiens, UniProt P50750); assay: Inhibition of CDK9 (unknown origin) by Kinomescan method
T12 sequence (P50750 whole entry): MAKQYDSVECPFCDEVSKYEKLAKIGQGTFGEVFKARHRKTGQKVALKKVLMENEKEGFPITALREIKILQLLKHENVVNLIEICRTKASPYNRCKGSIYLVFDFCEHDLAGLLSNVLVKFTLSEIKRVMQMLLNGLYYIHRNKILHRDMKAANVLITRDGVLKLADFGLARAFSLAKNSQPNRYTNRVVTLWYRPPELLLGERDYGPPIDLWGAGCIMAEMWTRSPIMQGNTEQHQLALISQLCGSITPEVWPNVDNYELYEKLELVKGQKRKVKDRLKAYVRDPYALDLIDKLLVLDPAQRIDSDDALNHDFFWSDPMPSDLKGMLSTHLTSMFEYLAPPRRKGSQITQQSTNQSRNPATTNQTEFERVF

[18] = biological target: T13, Cyclin-dependent kinase 18 (Homo sapiens, UniProt Q07002); assay: Inhibition of CDK18 (unknown origin) by Kinomescan method
[19] = biological target: T8, Cyclin-dependent kinase 2; assay: Inhibition of CDK2 (unknown origin) by Kinomescan method
[20] = biological target: Dual specificity tyrosine-phosphorylation-regulated kinase 1B (Homo sapiens, UniProt Q9Y463); assay: Inhibition of DYRK1B (unknown origin) by Kinomescan method
[21] = biological target: T5, Cyclin-dependent kinase 5; assay: Inhibition of CDK5 (unknown origin) by Kinomescan method
[22] = biological target: T14, Cyclin-dependent kinase 1 (Homo sapiens, UniProt P06493); assay: Inhibition of CDK1 (unknown origin) by Kinomescan method
T14 sequence (P06493 whole entry): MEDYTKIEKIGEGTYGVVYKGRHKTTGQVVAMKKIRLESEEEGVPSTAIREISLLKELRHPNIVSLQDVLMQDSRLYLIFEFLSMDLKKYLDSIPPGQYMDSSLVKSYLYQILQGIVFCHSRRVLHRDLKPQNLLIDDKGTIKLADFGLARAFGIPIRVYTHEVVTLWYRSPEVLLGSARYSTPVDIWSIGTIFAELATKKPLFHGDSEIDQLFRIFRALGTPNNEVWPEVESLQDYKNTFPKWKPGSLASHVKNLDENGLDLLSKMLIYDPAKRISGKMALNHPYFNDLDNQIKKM

[23] = biological target: T12, Cyclin-dependent kinase 9; assay: Inhibition of CDK9 (unknown origin) at 1 uM by Kinomescan method
[24] = biological target: T15, Cyclin-dependent kinase 7 (Homo sapiens, UniProt P50613)
T15 sequence (P50613 whole entry): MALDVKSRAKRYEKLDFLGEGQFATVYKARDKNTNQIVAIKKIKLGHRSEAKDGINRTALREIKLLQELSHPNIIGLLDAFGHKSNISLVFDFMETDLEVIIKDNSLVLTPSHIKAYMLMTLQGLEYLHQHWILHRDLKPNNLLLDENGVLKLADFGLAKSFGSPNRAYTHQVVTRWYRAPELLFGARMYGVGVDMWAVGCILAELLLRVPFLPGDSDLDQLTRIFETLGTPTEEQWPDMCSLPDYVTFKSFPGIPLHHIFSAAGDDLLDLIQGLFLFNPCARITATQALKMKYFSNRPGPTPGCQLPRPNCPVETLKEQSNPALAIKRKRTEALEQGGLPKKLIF

[25] = biological target: T16, Protein cereblon/Cyclin-dependent kinase 9 (Homo sapiens, UniProt P50750+Q96SW2); assay: Protac activity at CRBN/CDK9 in human MCF7 cells assessed as degradation of CDK9 measured after 24 hrs by western blot analysis; format: cell-based
T16 sequence (P50750 whole entry): as the sequence (P50750 whole entry) above
T16 sequence (Q96SW2 whole entry): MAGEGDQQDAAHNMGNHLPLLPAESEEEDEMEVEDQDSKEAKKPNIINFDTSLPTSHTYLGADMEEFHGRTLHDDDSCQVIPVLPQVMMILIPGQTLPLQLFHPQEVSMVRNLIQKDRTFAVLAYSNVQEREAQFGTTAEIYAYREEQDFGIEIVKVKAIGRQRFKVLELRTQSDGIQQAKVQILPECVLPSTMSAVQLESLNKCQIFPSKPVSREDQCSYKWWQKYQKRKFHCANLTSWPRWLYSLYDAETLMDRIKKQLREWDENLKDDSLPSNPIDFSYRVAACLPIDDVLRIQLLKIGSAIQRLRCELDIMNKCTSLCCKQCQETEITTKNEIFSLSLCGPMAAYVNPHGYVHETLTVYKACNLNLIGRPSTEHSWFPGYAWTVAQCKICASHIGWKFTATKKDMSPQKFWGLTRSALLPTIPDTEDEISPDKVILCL

[26] = biological target: T16, Protein cereblon/Cyclin-dependent kinase 9; assay: Protac activity at CRBN/CDK9 in human MOLT-4 cells assessed as degradation of CDK9 measured after 6 hrs by western blot analysis; format: cell-based
[27] = biological target: CDK8/Cyclin C (Homo sapiens, UniProt P49336); assay: Inhibition of CDK8/Cyclin C (unknown origin) by LanthaScreen binding assay; format: protein-complex assay
[28] = biological target: Cyclin-C/Cyclin-dependent kinase 19 (Homo sapiens, UniProt Q9BWU1); assay: Inhibition of CDK19/Cyclin C (unknown origin) by LanthaScreen binding assay; format: protein-complex assay
[29] = biological target: CDK9/Cyclin K (Homo sapiens, UniProt P50750); assay: Inhibition of CDK9/Cyclin K (unknown origin) by LanthaScreen binding assay; format: protein-complex assay
[30] = Inhibition of CDK7/Cyclin H/MAT1 (unknown origin); design: species or system Homo sapiens
[31] = biological target: T4, Cyclin-dependent kinase 1/cyclin B; assay: Inhibition of CDK1/Cyclin B (unknown origin); format: protein-complex assay
[32] = Inhibition of CDK4/Cyclin D (unknown origin); design: species or system Homo sapiens
[33] = Inhibition of CDK6/Cyclin D3 (unknown origin); design: species or system Homo sapiens
[34] = Inhibition of CDK3/Cyclin E (unknown origin); design: species or system Homo sapiens
[35] = biological target: T8, Cyclin-dependent kinase 2; assay: Inhibition of CDK2 (unknown origin) incubated for 120 mins in presence of ATP by HotSpot kinase assay
[36] = biological target: Cyclin-dependent kinase 3 (Homo sapiens, UniProt Q00526); assay: Inhibition of CDK3 (unknown origin) incubated for 120 mins in presence of ATP by HotSpot kinase assay
[37] = biological target: Cyclin-dependent kinase 19 (Homo sapiens, UniProt Q9BWU1); assay: Inhibition of CDK19 (unknown origin) incubated for 120 mins in presence of ATP by HotSpot kinase assay
[38] = biological target: T9, Cyclin-dependent kinase 17; assay: Inhibition of CDK17 (unknown origin) incubated for 120 mins in presence of ATP by HotSpot kinase assay
[39] = biological target: T7, Cyclin-dependent kinase 8; assay: Inhibition of CDK8 (unknown origin) incubated for 120 mins in presence of ATP by HotSpot kinase assay
[40] = biological target: Cyclin-dependent kinase 12 (Homo sapiens, UniProt Q9NYV4)
[41] = biological target: T1, Cyclin-dependent kinase 4; assay: Inhibition of CDK4 (unknown origin) incubated for 120 mins in presence of ATP by HotSpot kinase assay
[42] = biological target: Cyclin-dependent kinase 13 (Homo sapiens, UniProt Q14004)
[43] = biological target: T5, Cyclin-dependent kinase 5; assay: Inhibition of CDK5 (unknown origin) incubated for 120 mins in presence of ATP by HotSpot kinase assay
[44] = biological target: T11, Cyclin-dependent kinase 16; assay: Inhibition of CDK16 (unknown origin) incubated for 120 mins in presence of ATP by HotSpot kinase assay
[45] = biological target: T10, Cyclin-dependent kinase 14; assay: Inhibition of CDK14 (unknown origin) incubated for 120 mins in presence of ATP by HotSpot kinase assay
[46] = biological target: T13, Cyclin-dependent kinase 18
[47] = biological target: T6, Cyclin-dependent kinase 6; assay: Inhibition of CDK6 (unknown origin) incubated for 120 mins in presence of ATP by HotSpot kinase assay
[48] = biological target: T3, Cyclin-dependent kinase 2/cyclin A; assay: Inhibition of CDK2/cyclin A (unknown origin) using GST-CTD and gamma-32P-ATP as substrate incubated for 5 min by […]; format: protein-complex assay
[49] = biological target: T12, Cyclin-dependent kinase 9; assay: Inhibition of CDK9 (unknown origin) using TMB as substrate by ELISA
[50] = biological target: T2, Cyclin-dependent kinase 4/cyclin D1; assay: Inhibition of CDK4/cyclin D1 (unknown origin) assessed as substrate phosphorylation using ULight MBP peptide as substrate in presence of ATP incubated for 1 hr by FRET based LANCE Ultra KinaSelect screen assay; format: protein-complex assay
[51] = biological target: T6, Cyclin-dependent kinase 6; assay: Inhibition of CDK6 (unknown origin) assessed as substrate phosphorylation using ULight MBP peptide as substrate in presence of ATP incubated for 1 hr by FRET based LANCE Ultra KinaSelect screen assay
[52] = biological target: T3, Cyclin-dependent kinase 2/cyclin A; assay: Inhibition of CDK2/cyclin A (unknown origin) assessed as substrate phosphorylation using ULight MBP peptide as substrate in presence of ATP incubated for 1 hr by FRET based LANCE Ultra KinaSelect screen assay; format: protein-complex assay
[53] = biological target: T15, Cyclin-dependent kinase 7; assay: Inhibition of CDK7 (unknown origin) assessed as substrate phosphorylation using ULight MBP peptide as substrate in presence of ATP incubated for 1 hr by FRET based LANCE Ultra KinaSelect screen assay
[54] = biological target: Cyclin-dependent kinase 1/cyclin B1 (Homo sapiens, UniProt P06493); assay: Inhibition of CDK1/cyclin B1 (unknown origin) assessed as substrate phosphorylation using ULight MBP peptide as substrate in presence of ATP incubated for 1 hr by FRET based LANCE Ultra KinaSelect screen assay; format: protein-complex assay
[55] = biological target: T12, Cyclin-dependent kinase 9
[56] = biological target: T8, Cyclin-dependent kinase 2; assay: Inhibition of CDK2 (unknown origin) by LANCE ULight TR-FRET assay
[57] = biological target: T1, Cyclin-dependent kinase 4; assay: Inhibition of CDK4 (unknown origin) by LANCE ULight TR-FRET assay
[58] = biological target: T7, Cyclin-dependent kinase 8; assay: Inhibition of CDK8 (unknown origin) by LANCE ULight TR-FRET assay
[59] = biological target: T14, Cyclin-dependent kinase 1; assay: Inhibition of CDK1 (unknown origin) by LANCE ULight TR-FRET assay
[60] = biological target: T15, Cyclin-dependent kinase 7; assay: Inhibition of CDK7 (unknown origin) by LANCE ULight TR-FRET assay

T1 sequence (P11802 whole entry): as the sequence (P11802 whole entry) above

SMILES: Fc1ccc(N2CCCCC2)c(NC(=S)c2ccncc2)c1
- pIC50 [1]: 4.52

SMILES: CN1CCC(c2c(O)cc(O)c3c(=O)cc(-c4ccccc4Cl)oc23)C1CO (configuration not stated) [RIVICICLIB]
- pIC50 [2]: 7.20
- pIC50 [3]: 6.65
- pIC50 [4]: 7.10
- pIC50 [5]: 6.40

SMILES: COCCN1CCN(Cc2ccc(-c3n[nH]c4c3C(=O)c3c(NC(=O)NN5CCOCC5)cccc3-4)cc2)CC1 [RGB-286638]
- pIC50 [6]: 8.30

SMILES: CN(C)CCNC(=O)c1ccc(Nc2ncc3cc(C(=O)N(C)C)n(C4CCCC4)c3n2)c(F)c1
- pIC50 [7]: 8.60
- pIC50 [8]: 8.15

SMILES: CN1CC[C@@H](c2c(O)cc(O)c3c(=O)cc(-c4ccc(C(F)(F)F)cc4Cl)oc23)[C@@H]1CO [VORUCICLIB]
- pIC50 [9]: 6.68
- pIC50 [10]: 6.68
- pIC50 [11]: 7.92
- pIC50 [12]: 6.74

SMILES: COC[C@@H](C)N[C@H]1CC[C@H](Nc2cc(-c3cccc(NCC4(C#N)CCOCC4)n3)c(Cl)cn2)CC1
- pIC50 [13]: 5.82
- pIC50 [14]: 5.46
- pIC50 [15]: 6.22
- pIC50 [16]: < 5.00
- pIC50 [17]: > 9.29
- pIC50 [18]: 5.31
- pIC50 [19]: 6.15
- pIC50 [20]: 6.46
- pIC50 [21]: 5.98
- pIC50 [22]: 6.23
- inhibition [23]: 99%
- pIC50 [24]: < 5.00

SMILES: O=C1CCC(N2C(=O)c3cccc(NC(=O)CCCCCn4cc(Oc5c(O)cc(O)c6c(=O)cc(-c7ccccc7)oc56)nn4)c3C2=O)C(=O)N1 (configuration not stated)
- DC50 [25]: 10000 nM

SMILES: CC(C)(C)c1cnc(CSc2cnc(NC(=O)C3CCN(CC(=O)NCCOCCOCCOCCNc4cccc5c4C(=O)N(C4CCC(=O)NC4=O)C5=O)CC3)s2)o1 (configuration not stated)
- DC50 [26]: < 250 nM

SMILES: CC(C)c1ccc(Nc2nccc(-c3cnn4ncccc34)n2)cc1 [GW805758X]
- pIC50 [27]: 8.96
- pIC50 [28]: 8.57
- pIC50 [29]: 7.70

SMILES: Nc1nc(N[C@H]2CC3CCC2C3)sc1C(=O)c1ccccc1[N+](=O)[O-] (some centres not stated)
- pIC50 [30]: 6.26
- pIC50 [31]: 6.86
- pIC50 [32]: 6.95
- pIC50 [6]: 6.80
- pIC50 [33]: 6.15
- pIC50 [34]: 6.40

SMILES: CCCc1cc(N[C@@H]2CC[C@@H](N)C2)n2nccc2n1
- pIC50 [35]: 4.74
- pIC50 [36]: < 5.92
- pIC50 [37]: < 5.92
- pIC50 [38]: < 5.92
- pIC50 [39]: < 5.92
- pIC50 [40]: 5.21
- pIC50 [41]: < 5.92
- pIC50 [42]: 5.34
- pIC50 [43]: < 5.92
- pIC50 [44]: < 5.92
- pIC50 [45]: < 5.92
- pIC50 [46]: < 5.92
- pIC50 [47]: < 5.92

SMILES: Nc1n[nH]c(N)c1/N=N/c1ccc(O)cc1
- pIC50 [48]: 5.46

SMILES: O=C1N=NC(=O)/C(=C/Nc2ccc(-c3nc4ncccc4[nH]3)cc2)C(=O)N1
- pIC50 [49]: 6.30

SMILES: COc1ccccc1-c1cc(Nc2cccc(CS(N)(=O)=O)c2)ncn1
- pIC50 [50]: 5.03
- pIC50 [51]: < 5.00
- pIC50 [52]: 5.61
- pIC50 [53]: < 5.00
- pIC50 [54]: 5.26

SMILES: COc1cc(O)c2c(=O)cc(-c3ccc(N4CCN(C)CC4)cc3)oc2c1N1CCNCC1
- pIC50 [55]: 7.52
- pIC50 [12]: 5.93

SMILES: COc1ccc(F)cc1-c1c(F)cnc2[nH]c(C3=CCN([C@H]4CC[C@H](C(=O)O)CC4)CC3)cc12
- pIC50 [56]: 6.48
- pIC50 [57]: 7.79
- pIC50 [58]: 5.79
- pIC50 [59]: 6.46
- pIC50 [60]: 4.84
